Source: ChEMBL document CHEMBL4376805, “Plasmodium Purine Metabolism and Its Inhibition by Nucleoside and Nucleotide Analogues” (J Med Chem, 2019)

Key:
[1] = molecular target: T1, Adenosine deaminase (Plasmodium falciparum, UniProt Q86GS5); assay: Inhibition of Plasmodium falciparum ADA assessed as reduction in formation of ammonia using adenosine as substrate incubated for 15 mins by spectrophotometric analysis
T1 sequence (Q86GS5 whole entry): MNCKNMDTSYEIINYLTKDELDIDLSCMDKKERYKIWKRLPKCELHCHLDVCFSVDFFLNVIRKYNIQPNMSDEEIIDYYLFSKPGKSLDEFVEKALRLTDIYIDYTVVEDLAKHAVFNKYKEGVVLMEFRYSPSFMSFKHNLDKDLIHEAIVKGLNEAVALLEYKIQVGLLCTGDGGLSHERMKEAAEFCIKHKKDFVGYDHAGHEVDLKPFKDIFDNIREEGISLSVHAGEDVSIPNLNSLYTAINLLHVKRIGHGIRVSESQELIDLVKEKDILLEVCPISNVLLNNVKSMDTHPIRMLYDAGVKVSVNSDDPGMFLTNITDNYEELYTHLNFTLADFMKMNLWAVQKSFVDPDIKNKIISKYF

[2] = molecular target: T1, Adenosine deaminase; assay: Inhibition of Plasmodium falciparum N-terminal thrombin cleavable His6-tagged ADA expressed in Escherichia coli BL21 assessed as equilibrium dissociation constant by measuring reduction in formation of inosine using adenosine as substrate
[3] = molecular target: T1, Adenosine deaminase; assay: Inhibition of Plasmodium falciparum N-terminal thrombin cleavable His6-tagged ADA expressed in Escherichia coli BL21 assessed as reduction in formation of inosine using adenosine as substrate
[4] = Inhibition of Plasmodium falciparum HGXPRT using Prib-PP as substrate by Hanes-plot based method
[5] = Inhibition of Plasmodium vivax HGPRT using Prib-PP as substrate by Hanes-plot based method
[6] = test system: Plasmodium falciparum; assay: Antimalarial activity against Plasmodium falciparum; assay type: functional; details: read-out: ID50 (the source's name)
[7] = molecular target: T2, Purine nucleoside phosphorylase (Plasmodium falciparum, UniProt Q8T9Z7)
T2 sequence (Q8T9Z7 whole entry): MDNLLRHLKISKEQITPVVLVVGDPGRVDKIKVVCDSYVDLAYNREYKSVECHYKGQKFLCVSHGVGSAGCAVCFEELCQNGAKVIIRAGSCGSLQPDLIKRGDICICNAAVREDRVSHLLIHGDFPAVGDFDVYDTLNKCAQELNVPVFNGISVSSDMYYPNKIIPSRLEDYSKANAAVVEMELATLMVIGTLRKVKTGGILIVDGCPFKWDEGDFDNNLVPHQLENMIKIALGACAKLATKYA
Description: Inhibition of Plasmodium falciparum His-tagged PNP assessed as inhibitor constant for enzyme-inhibitor-substrate complex formation

[8] = molecular target: T3, Purine nucleoside phosphorylase (Homo sapiens, UniProt P00491)
T3 sequence (P00491 whole entry): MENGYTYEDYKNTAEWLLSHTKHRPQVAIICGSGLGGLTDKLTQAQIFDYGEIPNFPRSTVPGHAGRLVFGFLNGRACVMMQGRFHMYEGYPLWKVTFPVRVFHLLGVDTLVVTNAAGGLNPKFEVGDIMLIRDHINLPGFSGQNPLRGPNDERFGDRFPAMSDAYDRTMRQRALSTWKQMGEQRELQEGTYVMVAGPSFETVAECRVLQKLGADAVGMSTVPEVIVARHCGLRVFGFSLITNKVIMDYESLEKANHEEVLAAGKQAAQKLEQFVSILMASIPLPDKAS
Description: Inhibition of human PNP assessed as inhibitor constant for enzyme-inhibitor-substrate complex formation

[9] = test system: Plasmodium falciparum; assay: Antimalarial activity against Plasmodium falciparum D6 assessed as reduction in parasite growth preincubated for 48 hrs followed by addition of [3H]Hypoxanthine and measured after 48 hrs by [3H]Hypoxanthine incorporation assay; assay type: functional, organism-based
[10] = test system: Plasmodium falciparum; assay: Antimalarial activity against chloroquine/ pyrimethamine-resitant Plasmodium falciparum W2 assessed as reduction in parasite growth preincubated for 48 hrs followed by addition of [3H]Hypoxanthine and measured after 48 hrs by [3H]Hypoxanthine incorporation assay; assay type: functional, organism-based
[11] = molecular target: T3, Purine nucleoside phosphorylase; assay: Inhibition of human PNP expressed in Escherichia coli assessed as reduction in uric acid formation by spectrophotometric method
[12] = test system: Plasmodium falciparum; assay: microbe, parasite or virus in culture; details: 3D7
Description: Antimalarial activity against Plasmodium falciparum 3D7 infected in human erythrocytes assessed as reduction in [3H]ethanolamine incorporation incubated for 18 hrs followed by addition of [3H]ethanolamine and measured after 48 hrs by scintillation counting method

[13] = test system: Plasmodium falciparum; assay: Antimalarial activity against synchronized Plasmodium falciparum K1 ring form infected in human erythrocytes assessed as reduction in parasite growth after 72 hrs by Hoechst 33258 staining based fluorescence assay; assay type: functional, organism-based; details: K1, 72 h
[14] = molecular target: T4, Hypoxanthine-guanine phosphoribosyltransferase (Homo sapiens, UniProt P00492)
T4 sequence (P00492 whole entry): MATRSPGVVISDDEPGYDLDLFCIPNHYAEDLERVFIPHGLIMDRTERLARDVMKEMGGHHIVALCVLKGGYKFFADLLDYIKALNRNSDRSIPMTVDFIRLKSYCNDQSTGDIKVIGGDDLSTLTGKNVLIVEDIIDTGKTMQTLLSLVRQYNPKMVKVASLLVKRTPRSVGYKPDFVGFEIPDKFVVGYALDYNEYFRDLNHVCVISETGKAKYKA
Description: Inhibition of human HGPRT using Prib-PP as substrate by Hanes-plot based method

[15] = molecular target: T4, Hypoxanthine-guanine phosphoribosyltransferase; assay: Inhibition of human N-terminal His6-tagged HGPRT using Prib-PP as substrate by Hanes-plot based method
[16] = Inhibition of Plasmodium falciparum N-terminal His6-tagged HGXPRT using Prib-PP as substrate by Hanes-plot based method
[17] = test system: Plasmodium falciparum; assay: Antimalarial activity against Plasmodium falciparum FCQ-27 isolate infected in erythrocytes assessed as reduction in [G-3H]Hypoxanthine incorporation incubated for 24 hrs followed by addition of [G-3H]Hypoxanthine and measured after 18 to 20 hrs by scintillation counting method; assay type: functional
[18] = test system: Plasmodium falciparum; assay: Antimalarial activity against multi drug-resistant Plasmodium falciparum K1 assessed as reduction in parasite growth [3H]Hypoxanthine incorporation assay; assay type: functional; details: read-out: ID50 (the source's name)
[19] = test system: Plasmodium falciparum; assay: Antimalarial activity against synchronized Plasmodium falciparum ring stage form assessed as reduction in [2,8-3H]Hypoxanthine incorporation incubated for 48 hrs followed by addition of [2,8-3H]Hypoxanthine and measured after 24 hrs by liquid scintillation counting method; assay type: functional, organism-based
[20] = molecular target: T3, Purine nucleoside phosphorylase; remark: listed apart in the source
Description: Inhibition of human PNP assessed as inhibitor constant for enzyme-inhibitor complex formation

[21] = molecular target: T2, Purine nucleoside phosphorylase; remark: listed apart in the source
Description: Inhibition of Plasmodium falciparum His-tagged PNP assessed as inhibitor constant for enzyme-inhibitor complex formation

[22] = Inhibition of Plasmodium falciparum HGXPRT expressed in Escherichia coli BL21 (DE3) assessed as inhibitor constant for enzyme-inhibitor-substrate complex formation using [5'-14C]IMP as substrate by scintillation counting method
[23] = substrate: O=c1[nH]cnc2c1ncn2[C@@H]1O[C@H](CO)[C@@H](O)[C@H]1O; assay: Binding affinity to Plasmodium falciparum His-tagged PNP assessed as catalytic rate by measuring uric acid formation
[24] = substrate: O=c1[nH]cnc2c1ncn2[C@@H]1O[C@H](CO)[C@@H](O)[C@H]1O; assay: Binding affinity to human PNP assessed as catalytic rate by measuring uric acid formation

Molecule: OC[C@H]1O[C@@H](n2cnc3c2N=CNC[C@H]3O)[C@H](O)[C@@H]1O [COFORMYCIN]
- Ki [1]: 0.25 nM
- Ki [2]: 0.08 nM
- Ki [3]: 0.00068 µM

Molecule: Nc1nc2c(ncn2[C@@H]2CN(C(=O)CCP(=O)(O)O)C[C@H]2OC[C@@H](O)P(=O)(O)O)c(=O)[nH]1
- Ki [4]: 0.007 µM
- Ki [5]: 0.008 µM

Molecule: Nc1ncnc2c1ncn2[C@@H]1C[C@@H](OP(=O)(O)OC[C@H]2O[C@@H](n3cc(F)c(=O)[nH]c3=O)C[C@@H]2O)[C@H](CO)O1
- IC50 [6]: 5 µM

Molecule: Nc1nc2c([C@@H]3N[C@H](CO)[C@@H](O)[C@H]3O)c[nH]c2c(=O)[nH]1
- Ki [7]: 0.0009 µM
- Ki [8]: 0.029 µM

Molecule: CCOC(=O)[C@H](Cc1ccccc1)NP(=O)(CCO[C@@H](Cn1cnc2c(=O)[nH]c(N)nc21)C(=O)OC)N[C@@H](Cc1ccccc1)C(=O)OCC
- IC50 [9]: 50 µM
- IC50 [10]: 50 µM

Molecule: OC[C@H]1O[C@@H](n2cnc3c2NC=NC[C@@H]3O)[C@H](O)[C@@H]1O
- Ki [1]: 0.007 nM

Molecule: CSC[C@H]1N[C@@H](c2c[nH]c3c(=O)[nH]cnc23)[C@H](O)[C@@H]1O
- Ki [11]: 0.303 µM
- IC50 [12]: 0.05 µM

Molecule: Nc1nccc2c1ncn2C[C@H](CO)OCP(=O)(O)O
- IC50 [13]: 100 µM

Molecule: CCOC(=O)[C@H](Cc1ccccc1)NP(N)(=O)CCO[C@H](CO)Cn1cnc2c(=O)[nH]cnc21 (stereo partly drawn)
- IC50 [9]: > 250 µM
- IC50 [10]: > 250 µM

Molecule: Nc1ncnc2c1ncn2C[C@@H](CO)OCP(=O)(O)O
- IC50 [13]: 0.18 µM

Molecule: O=c1[nH]cnc2c1ncn2C[C@H](CO)n1cc(P(=O)(O)O)nn1
- Ki [4]: 3 µM
- Ki [5]: > 100 µM
- Ki [14]: 8 µM

Molecule: Nc1nc2c(ncn2C[C@H](CO)n2cc(P(=O)(O)O)nn2)c(=O)[nH]1
- Ki [4]: 1 to 6 µM
- Ki [5]: 1 to 6 µM
- Ki [14]: 0.1 µM

Molecule: Nc1nc2c(ncn2C[C@@H](CO)OCCP(=O)(O)O)c(=O)[nH]1
- Ki [15]: 0.6 µM
- Ki [16]: 0.1 µM

Molecule: O=c1[nH]cnc2c([C@@H]3N[C@H](CO)[C@@H](O)[C@H]3O)c[nH]c12 [FORODESINE]
- IC50 [12]: 0.063 µM

Molecule: CNc1ncnc2c1ncn2[C@H]1C[C@H](O)[C@@H](CO)O1
- IC37 [17]: 10 µM

Molecule: Nc1ncnc2c1ncn2[C@H]1O[C@@H](CO)[C@H](OP(=O)(O)OC[C@H]2O[C@@H](n3cc(F)c(=O)[nH]c3=O)C[C@@H]2O)[C@@H]1O
- IC50 [6]: 4 µM

Molecule: Nc1nc(SCc2ccc([N+](=O)[O-])cc2)c2ncn([C@@H]3O[C@H](CO)[C@@H](O)[C@H]3O)c2n1
- IC50 [18]: 4.5 µM

Molecule: Nc1ncnc2c1c(I)cn2[C@@H]1O[C@H](CO)[C@@H](O)[C@H]1O [IODOTUBERCIDIN]
- IC50 [19]: 2 µM

Molecule: NC(=O)c1cn([C@@H]2O[C@H](CO)[C@@H](O)[C@H]2O)c2ncnc(N)c12 [SANGIVAMYCIN]
- IC50 [6]: 25 µM
- IC37 [17]: 0.3 µM

Molecule: Nc1nc(N)c2ncn(C[C@@H](CO)OCP(=O)(O)O)c2n1
- IC50 [13]: 2.1 µM

Molecule: O=C(CCP(=O)(O)O)N1C[C@@H](n2cnc3c(O)ncnc32)[C@H](OC[C@@H](O)P(=O)(O)O)C1
- Ki [4]: 0.002 µM
- Ki [5]: 0.006 µM

Molecule: O=[N+]([O-])c1ccc(CSc2ncnc3c2ncn3[C@@H]2O[C@H](CO)[C@@H](O)[C@H]2O)cc1 [NITROBENZYLMERCAPTOPURINE RIBONUCLEOSIDE]
- IC50 [18]: 4.2 µM

Molecule: Nc1nc2c(ncn2C[C@@H](CO)n2cc(P(=O)(O)O)nn2)c(=O)[nH]1
- Ki [4]: 2 µM
- Ki [5]: 2 µM
- Ki [14]: 0.4 µM

Molecule: Nc1nc(N)c2ncn(C[C@H](CO)OCP(=O)(O)O)c2n1
- IC50 [13]: 15 µM

Molecule: Nc1nc2c(nc(Br)n2C[C@@H](CO)OCCP(=O)(O)O)c(=O)[nH]1
- Ki [15]: 13 µM
- Ki [16]: > 30 µM

Molecule: Nc1ncnc2c1ncn2CCOCP(=O)(O)O [ADEFOVIR]
- IC50 [13]: > 250 µM

Molecule: CC(C)(C)C(=O)OCOP(=O)(COCCn1cnc2c(N)ncnc21)OCOC(=O)C(C)(C)C [ADEFOVIR DIPIVOXIL]
- IC50 [13]: 37.3 µM

Molecule: CCOC(=O)[C@H](Cc1ccccc1)NP(N)(=O)CCO[C@H](CO)Cn1cnc2c(=O)[nH]c(N)nc21 (stereo partly drawn)
- IC50 [9]: > 250 µM
- IC50 [10]: > 250 µM

Molecule: Nc1nc(Cl)nc2c1ncn2[C@@H]1O[C@H](CO)[C@@H](O)[C@H]1O
- IC37 [17]: 11 µM

Molecule: Nc1nccc2c1ncn2C[C@@H](CO)OCP(=O)(O)O
- IC50 [13]: 0.29 µM

Molecule: O=c1[nH]cnc2c(CN3C[C@@H](CO)[C@H](O)C3)c[nH]c12
- Ki [20]: 1.7 µM
- Ki [21]: 0.0015 µM
- Ki [7]: 0.00068 µM
- Ki [8]: 0.08 µM

Molecule: Nc1ncnc2c1ccn2[C@@H]1O[C@H](CO)[C@@H](O)[C@H]1O [TUBERCIDIN]
- IC37 [17]: 0.7 µM

Molecule: CCOC(=O)[C@H](Cc1ccccc1)NP(=O)(CCO[C@@H](Cn1cnc2c(=O)[nH]cnc21)C(=O)OC)N[C@@H](Cc1ccccc1)C(=O)OCC
- IC50 [9]: 50 µM
- IC50 [10]: 50 µM

Molecule: Nc1nc2c(ncn2[C@H]2CCN(C(=O)CP(=O)(O)O)C2)c(=O)[nH]1
- Ki [4]: 400 µM
- Ki [5]: 2600 µM
- Ki [14]: 73000 µM

Molecule: O=c1[nH]c(=O)c2ncn(C[C@H](CO)n3cc(P(=O)(O)O)nn3)c2[nH]1
- Ki [4]: 2 µM
- Ki [14]: > 500 µM

Molecule: Nc1ncnc2c1ncn2C[C@H](CO)OCP(=O)(O)O
- IC50 [13]: 6 µM

Molecule: O=c1[nH]cnc2c([C@@H]3N[C@H](COP(=O)(O)O)[C@@H](O)[C@H]3O)c[nH]c12
- Ki [22]: 0.001 µM

Molecule: COC(=O)[C@H](Cn1cnc2c(=O)[nH]cnc21)OCCP(=O)(O)O
- Ki [15]: 6 µM
- Ki [16]: 1 µM

Molecule: CCOC(=O)[C@H](Cc1ccccc1)NP(=O)(CCO[C@H](CO)Cn1cnc2c(=O)[nH]c(N)nc21)N[C@@H](Cc1ccccc1)C(=O)OCC
- IC50 [9]: 22 to 70 µM
- IC50 [10]: 22 to 70 µM

B1: Purine nucleoside phosphorylase (Plasmodium falciparum), Q8T9Z7 (protein)
chain: T2 sequence (Q8T9Z7 whole entry)
- kcat [23]: 0.34 s⁻¹

B2: Purine nucleoside phosphorylase (Homo sapiens), P00491 (protein)
chain: T3 sequence (P00491 whole entry)
- kcat [24]: 56 s⁻¹
